This is an account of results in patent EP4741389A1, “KAT6 INHIBITOR” (Shanghai Qilu Pharmaceutical Research and Development …, priority 2023, dated 2025).

Data set [1] is described as follows: Body weight changes and tolerability in the ZR-75-1 xenograft study. The class given is in vivo, Mouse. The following applies: result in words; for body weight changes: differences among the groups, FIG. 1. Here is the method:
(§1) • Species: Mouse; • Strain: BALB/c nude mice; • Age and weight: 6-8 weeks old, weighing 19-26 grams; • Gender: Female; • Supplier: GemPharmatech Co., Ltd.; • Compound source: Compound A: [drawing 190] prepared with reference to patent CN114364672A.
(§2) A mixture containing 10×10^6 ZR-75-1 cells in 100 µL PBS and 100 µL Matrigel (final volume was 200 µL) was subcutaneously implanted into the right dorsal side (upper side) of each mouse. On day 18 after cell implantation, when the average tumor volume reached 138 mm^3, grouping and administration were initiated. Mice with tumor volumes ranging from 100 to 212 mm^3 were selected for the study. Mice were randomly assigned to groups based on body weight and tumor volume, with 7 mice per group. The day of grouping was designated as PG-D0, and administration for all groups started from PG-D0.
The effects of the test drugs Compound 2, Compound 5-P2, Compound 3, and Compound A on the body weight of the female BALB/c nude mouse model with subcutaneously implanted human breast cancer ZR-75-1 cell xenografts are shown in FIG. 1.

For data set [2], the system named is human breast cancer ZR-75-1 cell xenografts. In words: In vivo efficacy study in BALB/c nude mouse model with subcutaneous ZR-75-1 xenografts. The note with it: for T/C / TGI / Tumor Volume: 0.3 mg/kg; for T/C / TGI: based on tumor volume on day 21 post-administration; for Tumor Volume: day 21 post-administration, female BALB/c nude mice, 7 per group.
Text: IV. In vivo efficacy study of test drug Compound 2, Compound 5-P2, Compound 3, and Compound A in a BALB/c nude mouse model with subcutaneously implanted human breast cancer ZR-75-1 cell xenografts
The objective of this experiment is to evaluate the in vivo efficacy of the test drug Compound 2, Compound 5-P2, Compound 3, and Compound A in a BALB/c nude mouse model with subcutaneously implanted human breast cancer ZR-75-1 cell xenografts.
as §1
Human breast cancer ZR-75-1 (ATCC, CRL-1500) cells were cultured in vitro as adherent cultures. The culture conditions were: 1640 medium supplemented with 10 vol% FBS, 100 U/mL penicillin, and 100 µg/mL streptomycin, incubated in a 37°C, 5% CO2 cell culture incubator. Routine passaging was performed twice a week. When cell confluence reached 80%-90% and the cell number met the requirements, cells were harvested, counted, and inoculated.
Three days before cell implantation, a 17β-estrogen pellet (0.36 mg) was implanted into the left dorsal side of each mouse. Starting one week after pellet implantation, animals were urinated 2-3 times per week. If necessary, animals were urinated daily.
as §2
The experimental index is to investigate whether tumor growth is inhibited, delayed, or cured. Tumor diameters were measured three times per week using a vernier caliper. Tumor volume was calculated using the formula: V = 0.5a × b^2, where a and b represent the major and minor diameters of the tumor, respectively.
The anti-tumor efficacy of the compounds was evaluated using TGI (%) or the relative tumor proliferation rate T/C (%). TGI (%), reflects the tumor growth inhibition rate. TGI (%) was calculated as: TGI (%) = [1 - (Mean tumor volume of a treatment group at the end of administration - Mean tumor volume of the same treatment group at the start of administration) / (Mean tumor volume of the vehicle control group at the end of treatment - Mean tumor volume of the vehicle control group at the start of treatment)] × 100%.
Relative Tumor Proliferation Rate T/C (%): The calculation formula is as follows: T/C% = TRTV / CRTV ×100 % (TRTV: RTV of the treatment group; CRTV: RTV of the negative control group). The relative tumor volume (RTV) was calculated based on tumor measurement results using the formula RTV = Vt /V0, where V0 is the tumor volume of each mouse measured at the start of grouping and administration (i.e., d0), and Vt is the tumor volume of each mouse at a specific measurement time. The mean value for each group was then calculated. V0 and Vt correspond to tumor volume data from the same mouse.

In data set [3] the target is T1, KAT6A (Homo sapiens, UniProt Q92794).
T1 construct: purchased Active Motif 81223
The data set is described as follows: KATs acetyltransferase enzyme activity assay (TR-FRET), KAT6A. The class given is biochemical. The note with it: Biotin-H3 (1-21) and AcCOA, 90 minutes at room temperature. For orientation: Time-resolved FRET reads energy transfer from a long-lived donor to a nearby acceptor.

Data set [4] addresses T2, KAT6B (Homo sapiens, UniProt Q8WYB5).
T2 construct: purchased Active Motif 81224
The data set is described as follows: KATs acetyltransferase enzyme activity assay (TR-FRET), KAT6B. The class given is biochemical. The following applies: Biotin-H3 (1-21) and AcCOA, 90 minutes at room temperature. Put shortly:
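TR-FRET assay in Tris-HCl buffer: enzyme preincubated with compound 15 min at room temperature, then biotin-H3(1-21) peptide and acetyl-CoA added for 90 min at room temperature. Acetylation detected with Eu-anti-acetyl-histone H4 lysine antibody and ULight-streptavidin (60 min), 665/620 nm ratio; IC50 from four-parameter logistic fit.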

T1 sequence (Q92794 488-778 limits assumed): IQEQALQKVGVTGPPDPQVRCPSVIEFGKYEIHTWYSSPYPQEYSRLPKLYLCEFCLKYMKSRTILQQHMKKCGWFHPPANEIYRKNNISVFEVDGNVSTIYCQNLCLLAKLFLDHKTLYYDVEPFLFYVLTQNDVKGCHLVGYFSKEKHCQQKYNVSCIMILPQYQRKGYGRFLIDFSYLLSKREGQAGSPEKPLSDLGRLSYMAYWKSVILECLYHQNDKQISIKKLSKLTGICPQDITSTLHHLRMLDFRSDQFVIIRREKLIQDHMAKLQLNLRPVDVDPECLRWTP
T2 sequence (Q8WYB5 whole entry): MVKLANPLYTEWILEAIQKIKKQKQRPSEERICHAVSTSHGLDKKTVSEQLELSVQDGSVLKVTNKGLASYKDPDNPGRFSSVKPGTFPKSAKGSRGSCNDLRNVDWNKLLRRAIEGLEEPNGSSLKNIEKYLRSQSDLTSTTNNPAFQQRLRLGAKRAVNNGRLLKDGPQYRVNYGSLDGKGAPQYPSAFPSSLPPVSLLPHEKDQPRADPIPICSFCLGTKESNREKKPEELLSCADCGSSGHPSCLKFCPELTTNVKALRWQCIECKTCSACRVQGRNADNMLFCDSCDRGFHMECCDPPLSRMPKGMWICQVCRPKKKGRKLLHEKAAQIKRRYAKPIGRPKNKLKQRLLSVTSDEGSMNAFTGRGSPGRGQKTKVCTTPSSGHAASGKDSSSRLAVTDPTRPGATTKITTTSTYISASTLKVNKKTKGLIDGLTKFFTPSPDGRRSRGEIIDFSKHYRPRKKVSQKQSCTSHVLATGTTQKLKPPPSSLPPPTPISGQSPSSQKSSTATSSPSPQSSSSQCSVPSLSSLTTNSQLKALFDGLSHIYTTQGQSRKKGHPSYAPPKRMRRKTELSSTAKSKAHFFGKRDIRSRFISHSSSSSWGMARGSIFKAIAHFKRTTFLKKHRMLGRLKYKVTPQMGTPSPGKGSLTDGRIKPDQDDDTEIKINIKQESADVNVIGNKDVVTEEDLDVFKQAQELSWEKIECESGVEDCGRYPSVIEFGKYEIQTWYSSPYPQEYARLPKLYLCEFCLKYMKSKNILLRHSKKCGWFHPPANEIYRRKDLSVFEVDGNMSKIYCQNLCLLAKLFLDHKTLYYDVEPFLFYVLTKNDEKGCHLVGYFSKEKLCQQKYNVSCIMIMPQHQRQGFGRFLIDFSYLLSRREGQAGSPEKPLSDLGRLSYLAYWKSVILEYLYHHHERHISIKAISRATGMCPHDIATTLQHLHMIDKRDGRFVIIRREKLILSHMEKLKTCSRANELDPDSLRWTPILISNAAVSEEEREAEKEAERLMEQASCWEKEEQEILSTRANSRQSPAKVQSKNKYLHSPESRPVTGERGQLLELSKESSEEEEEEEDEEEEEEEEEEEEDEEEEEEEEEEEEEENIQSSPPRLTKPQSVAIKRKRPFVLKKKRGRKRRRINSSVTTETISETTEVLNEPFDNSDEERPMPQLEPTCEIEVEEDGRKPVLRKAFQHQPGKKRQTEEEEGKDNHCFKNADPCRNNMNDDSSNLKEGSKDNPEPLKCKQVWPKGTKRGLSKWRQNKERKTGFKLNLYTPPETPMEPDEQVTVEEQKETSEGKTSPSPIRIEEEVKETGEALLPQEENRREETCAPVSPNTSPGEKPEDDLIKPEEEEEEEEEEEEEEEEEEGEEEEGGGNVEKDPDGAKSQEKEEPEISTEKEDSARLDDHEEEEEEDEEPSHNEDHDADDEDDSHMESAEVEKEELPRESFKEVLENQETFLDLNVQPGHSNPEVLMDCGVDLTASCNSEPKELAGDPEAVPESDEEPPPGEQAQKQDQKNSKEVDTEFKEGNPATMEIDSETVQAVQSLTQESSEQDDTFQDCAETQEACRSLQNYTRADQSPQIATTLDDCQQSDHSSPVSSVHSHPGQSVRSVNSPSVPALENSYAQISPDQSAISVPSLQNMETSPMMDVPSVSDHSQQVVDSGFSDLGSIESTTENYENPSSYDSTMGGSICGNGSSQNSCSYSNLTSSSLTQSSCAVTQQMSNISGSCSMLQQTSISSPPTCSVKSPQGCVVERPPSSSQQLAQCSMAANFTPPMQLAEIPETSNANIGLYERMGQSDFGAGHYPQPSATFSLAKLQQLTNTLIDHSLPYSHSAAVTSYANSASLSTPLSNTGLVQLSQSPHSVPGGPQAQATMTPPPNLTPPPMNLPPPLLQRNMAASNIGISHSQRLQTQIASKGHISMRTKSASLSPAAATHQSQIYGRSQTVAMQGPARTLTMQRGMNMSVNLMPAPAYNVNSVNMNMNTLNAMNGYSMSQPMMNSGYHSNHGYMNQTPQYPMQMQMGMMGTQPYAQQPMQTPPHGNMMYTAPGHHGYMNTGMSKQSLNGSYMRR

As a reminder, the T/C is the ratio of treated to control. Take `COc1ccccc1S(=O)(=O)Nc1noc2cc(Cn3cccn3)cc(OC)c12` [Compound A, reference compound]: the body weight changes entry in data set [1] is on record as “not significant”. For the same compound, in data set [2], the T/C is on record as 33.17%, the TGI was 80.40% and the “Tumor Volume” value is 278 ± 44 mm^3.

In general, IC50 refers to the concentration that gives 50% inhibition. Read a high IC50 as a need for much substance. Turning to `COc1ccc2c(c1S(=O)(=O)Nc1noc3cc(Cn4cccn4)cc(OC)c13)OCC21CC1` [Compound 3, N-(6-((1H-Pyrazol-1-yl)methyl)-4-methoxybenzo[d]isoxazol-3-yl)-6-methoxy-2H-spiro[benzofuran-3,1'-cyclopropane]-7-sulfonamide], in data set [3], the IC50 amounted to 1.8 nM. In addition, the body weight changes entry in data set [1] is listed as “not significant”. Further, in data set [1] (human breast cancer ZR-75-1 model), the “tolerability in tumor-bearing mice” value was “tolerated”. This compound came in with a concentration for half-maximal inhibition (IC50) in data set [4] of 7.5 nM. Further, in data set [2], the T/C is listed as 12.95%, the TGI is recorded as 104.47% and the “Tumor Volume” value amounted to 106 ± 12 mm^3. Further, the anti-tumor effects result in data set [2] (ZR-75-1 xenograft model, tumor growth curves FIG. 2, result in words) is given as “more significant anti-tumor effects compared to Compound A”.
